Experimental data from patent publication US20200113902A1, “COMPOSITIONS AND METHODS FOR TREATING CANCERS WITH COVALENT INHIBITORS OF CYCLIN-DEPENDENT KINASE 7 (CDK7)” (Syros Pharmaceuticals, Inc., priority 2017, published 2020).

Legend:
[1] = system: MCL1 protein in OCI-AML3 cells; experiment: Western blot, AML cell line OCI-AML3; format: cell-based; conditions: 50 nM
Method: (§1) Cytotoxic cancer cell lines HCC70 and TOV21G, and cytostatic cancer cell lines T47D and COV318 were seeded in wells of a six-well dish at a density of 1×10^6 cells/well and allowed to adhere overnight. Cells were then treated with 50 nM of Compound 1 for 16 or 24 hours, or with DMSO (0 hours) representing a negative control. Cells were harvested and placed on ice, and resuspended in RIPA lysis buffer supplemented with protease and phosphatase inhibitors. Clarified lysates prepared with 4×LSD running buffer and boiled at 95° C. for 5 minutes. Equivalent amounts of sample (10 μg total protein) were run on a 4-12% Bis-Tris gel and transferred to a PDVF membrane for Western blotting using standard Western blotting protocols. Membranes were blocked with Licor TBS blocking buffer then probed with antibodies for BCL-XL, BCL-2, MCL1, BID, and GAPDH visualized using and Odyssey imager (FIGS. 23A and 23D).
(§2) We next explored the expression of MCL1, BCL-XL and BCL2 in four different AML cell lines. MV411, OCI-AML3 and KG1 cells were separately grown and prepared as described in Example 2 for Western blotting, using antibodies specific for BCL2 (FIG. 24A), BCL-XL, MCL-1 and tubulin as an internal control (FIG. 24B).

[2] = system: MCL1 protein in OC1M1 cells; experiment: Western blot, AML cell line OC1M1; format: cell-based; conditions: OC1M1 (high BCL-XL); 50 nM
Method: as §1, §2

[3] = system: MCL1 protein in HCC70 xenograft tumor; experiment: HCC70 xenograft tumor, Western blot; format: in vivo; conditions: HCC70 xenograft mouse; single dose of 40 mg/kg
Method: as §1
Subcutaneous HCC70 xenografts were established in BALC/c nude mice at ChemPartner (Shanghai, China). Each mouse was inoculated subcutaneously in the right flank with 5×10^6 HCC70 cells (ATCC, CAT #: CRL-2315) in 0.2 ml of a 1:1 mixture of base medium and Matrigel. Tumor sizes were measured in two dimensions using a caliper, and the volumes were expressed in mm^3 using the formula: V=0.5 a×b^2 where a and b are the longest and shortest diameters of the tumor, respectively. […]

OV15612 xenograft = experiment: Ovarian PDX OV15612, tumor volume; format: in vivo, mouse; conditions: OV15612 (FGFR1 super enhancer, CCNE1 high); 40 or 30 mg/kg i.v. BIW
Method: (§3) Patient-derived xenograft (PDX) models from ovarian carcinoma patients (OV5387, OV14702, OV14972, OV15398, OV15576, OV15696, OV15612, OV15631) were established in NOD-SCID mice at Crown Bioscience (San Diego, USA). Cryo vials containing tumor cells were thawed and prepared for injection into mice. Cells were washed in PBS, counted, and resuspended in cold PBS at a concentration of 50,000-100,000 viable cells/100 ul. Cell suspensions were mixed with an equal volume of Cultrex ECM and kept on ice during transport to the vivarium. Cells were prepared for injections by withdrawing ECM-Cell mixture into a chilled slip-tip syringe fitted with a 26G 7/8 (0.5 mm×22 mm) needle. The filled syringes were kept on ice to avoid the solidification of ECM. Each mouse was inoculated subcutaneously in the right flank with 200 uL of the cell suspension. Tumor sizes were measured in two dimensions using a caliper, and the volumes were expressed in mm3 using the formula: V=0.5 a×b^2 where a and b are the longest and shortest diameters of the tumor, respectively. Compound 1 treatment was started when the average tumor size reached 150-200 mm^3.
(§4) Compound 1 was formulated in w/v 20% Captisol (pH 4-6) and administered by i.v. twice weekly (BIW) at a final dose of 40 mg/kg or 30 mg/kg in a 10 ml/kg volume. Tumor volumes were measured twice weekly over the course of the study. […]

OV15398 xenograft = experiment: Ovarian PDX OV15398, tumor volume; format: in vivo, mouse; conditions: OV15398 (very low CDKN2A); 40 or 30 mg/kg i.v. BIW
Method: as §3, §4

[4] = system: homologous recombination deficiency / carboplatin sensitivity genes in TOV21G cells; experiment: Nanostring PanCancer Pathways mRNA, TOV21G; format: cell-based; conditions: 50 nM, 16 hours
Method: (§5) Ovarian Cell lines OvCar3, TOV21G, A2780 and COV318 were plated at 500,000 cells/well in a 6-well plate the day before treatment. The next day the cells were treated with vehicle or 50 nM Compound 1 for 0, 6, or 16 hours after which cells were harvested and total RNA collected using RNeasy mini kit (Qiagen). Changes in mRNA between samples were analyzed with Nanostring™ PanCancer Pathways Panels specifically analyzing genes related to homologous recombination deficiency and carboplatin sensitivity (ie. BRCA1, BRCA2, Rad51, ATM, ATR, MSH2, MSH6). Nanostring signal intensities were first normalized to housekeeping genes across all cell lines, and then normalized to the 0 hour timepoint within a cell line.

[5] = system: homologous recombination deficiency / carboplatin sensitivity genes in COV318 cells; experiment: Nanostring PanCancer Pathways mRNA, COV318; format: cell-based; conditions: 50 nM, 16 hours
Method: as §5

CN(C)C/C=C/C(=O)Nc1ccc(C(=O)N[C@@]2(C)CCC[C@@H](Nc3ncc(Cl)c(-c4c[nH]c5ccccc45)n3)C2)nc1 [Compound 1, N-((1S,3R)-3-(5-chloro-4-(1H-indol-3-yl)pyrimidin-2-ylamino)-1-methylcyclohexyl)-5-((E)-4-(dimethylamino)but-2-enamido)picolinamide]
MCL1 protein level (Western blot) [1]: significant reduction in MCL1 | MCL1 protein level (Western blot) [2]: little effect | MCL1 protein expression in tumor (Western blot) [3]: reduced MCL1 protein expression | Response to treatment (tumor growth) (OV15612 xenograft): responded | Response to treatment (tumor growth) (OV15398 xenograft): responded | mRNA of genes related to homologous recombination deficiency and carboplatin sensitivity, all genes except Rad51 (BRCA1, BRCA2, ATM, ATR, MSH2, MSH6) [4]: downregulated | mRNA of genes related to homologous recombination deficiency and carboplatin sensitivity, all genes except Rad51 (BRCA1, BRCA2, ATM, ATR, MSH2, MSH6) [5]: downregulated
